Laboratory results reported in US9670162B2, “Mitochondrial aldehyde dehyrogenase-2 modulators and methods of use thereof” (The Board of Trustees of the Leland Stanford Junior …, priority 2013, dated 2017).
Positions count from the first letter of the chain named.

What was measured:
[1] = target: T1, human ALDH2 wild type (Homo sapiens, UniProt P05091); test: ALDH2 enzymatic assay (NADH at 340 nm), recombinant wild type enzyme; assay type: biochemical; set-up: key: −: no activation or inhibition; +: activation less than control 1; ++: activation similar to control 1, within 10%; +++: activation more than control 1 and less than control (compound 161); ++++: activation similar to compound 161, within 10%; details: activation relative to benchmarks control 1 and compound 161
T1 construct: His-tag (pTrcHis vector) (N); made in house; host or cells: E. coli BL21
T1 sequence (P05091 18-517): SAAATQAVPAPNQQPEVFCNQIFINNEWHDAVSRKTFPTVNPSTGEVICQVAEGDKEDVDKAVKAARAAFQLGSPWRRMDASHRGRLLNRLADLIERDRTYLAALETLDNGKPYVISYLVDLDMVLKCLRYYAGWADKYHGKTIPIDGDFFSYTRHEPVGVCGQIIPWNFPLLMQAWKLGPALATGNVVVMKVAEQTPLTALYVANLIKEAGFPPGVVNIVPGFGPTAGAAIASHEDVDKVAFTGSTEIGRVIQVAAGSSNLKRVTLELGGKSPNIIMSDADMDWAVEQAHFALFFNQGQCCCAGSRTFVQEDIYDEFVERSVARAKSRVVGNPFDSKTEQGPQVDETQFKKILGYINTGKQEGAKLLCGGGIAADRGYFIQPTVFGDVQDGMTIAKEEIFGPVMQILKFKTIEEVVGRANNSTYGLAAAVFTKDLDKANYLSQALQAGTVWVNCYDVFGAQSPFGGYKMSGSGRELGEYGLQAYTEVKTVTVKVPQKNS
Source text: (§1) ALDH2 catalyzes the oxidative reaction of substrate acetaldehyde to acetic acid using NAD^+ as a cofactor. Enzymatic activity, or catalytic rate, of aldehyde dehydrogenase (ALDH2) can be measured spectrophotometrically at UV wavelength λ340 nm by the accumulation of reduced product NADH derived from NAD^+. […] This method is well-established in the literature [e.g. D. K. Rex, W. F. Bosron, J. E. Smialek, T. K. Li, Alcohol Clin Exp Res 9, 147 (1985)].
(§2) Full-length wild type human ALDH2 cDNA was purchased from ATCC (No. MGC-1806. GenBank ID: BC002967). The 18-amino acid mitochondria transport signal sequence was removed by PCR and cloned into the NheI/HindIII sites of a His-tag vector, pTrcHis, using standard molecular cloning techniques. The human ALDH2* cDNA construct containing the Asian E487K mutation was obtained by site-directed mutagenesis to create the E487K substitution of the wild type ALDH2. Both human clones were designed to express a recombinant protein with the His-tag at the N-terminus of the protein. For the co-expression experiments of human ALDH2 wild type and ALDH2*2 heterotetramers, a wild type ALDH2 gene and a ALDH2 E487K gene were inserted separately into the two multiple cloning sites of pETDuet-1 vector. (Novagen, Calif., USA). All the vectors were transformed into BL21 E. coli host cells and subjected to 0.5 mM IPTG induction for protein expression at 30° C. Purifications of the recombinant proteins by affinity nickel columns (HisTrap, GE Healthy Science, USA) were carried out using standard protocols according to manufacturer's instructions (Novagen, USA).
(§3) Control 1 and compound 161 are used as benchmarks and the symbols have the following representation: […]

[2] = target: T2, human ALDH2*2 recombinant mutant enzyme (E487K) (Homo sapiens, UniProt P05091, E504K); test: ALDH2 enzymatic assay (NADH at 340 nm), recombinant mutant enzyme; assay type: biochemical; set-up: key: −: no activation or inhibition; +: activation less than control 1; ++: activation similar to control 1, within 10%; +++: activation more than control 1 and less than control (compound 161); ++++: activation similar to compound 161, within 10%; details: activation relative to benchmarks control 1 and compound 161
T2 construct: His-tag (pTrcHis vector) (N); made in house; host or cells: E. coli BL21
T2 sequence (P05091 18-517 E504K): T1 sequence (P05091 18-517) with E487K
Source text: as §1, §2, §3

| SMILES | ALDH2 (wild-type) [1] | ALDH2 (mutant) [2] |
| --- | --- | --- |
| O=C(NCc1ccc2occc2c1)c1c(Cl)ccnc1OCC1CC1 [Compound 257] | + | + |
| COc1ccc(CNS(=O)(=O)c2c(Cl)cccc2NCC2CC2)cc1F [Compound 163] | + | + |
| CC(C)Oc1ccc(CNC(=O)c2c(Cl)ccnc2NCC2CC2)cc1F [Compound 189] | − | + |
| COc1ccc(CNC(=O)c2c(Cl)cccc2OCCN(C)C)cc1F [Compound 165] | ++ | ++ |
| O=C(NCc1ccc(OC(F)(F)F)c(F)c1)c1c(Cl)ccnc1OCC1CC1 [Compound 187] | + | ++ |
| COc1ccc(CNC(=O)c2c(Cl)cccc2NCC2CC2)cc1F [Compound 134] | +++ | +++ |
| O=C(NCc1ccc(F)c(F)c1)c1c(Cl)cccc1OCC1CC1 [Compound 155] | + | ++ |
| COc1ccc(CNC(=O)c2c(C)cccc2C)cc1 [Compound 114] | + | + |
| O=C1OCc2cc(CNC(=O)c3c(Cl)ccnc3OCC3CC3)ccc21 [Compound 258] | + | − |
| COc1ccc(CNC(=O)c2c(Cl)cccc2Oc2ccc(Cl)cc2)cc1F [Compound 137] | ++ | + |
| O=C(NCc1ccc2c(c1)CCCO2)c1c(Cl)ccnc1OCC1CC1 [Compound 244] | ++ | + |
| COc1ccc(CNC(=O)c2c(Cl)cccc2Oc2cccc(Cl)c2)cc1F [Compound 136] | ++ | ++ |
| CN(C)c1ccc(CNC(=O)c2c(Cl)cccc2Cl)cc1 [Compound 111] | − | − |
| CCOc1cccc(Cl)c1C(=O)NCc1ccc(OC)c(F)c1 [Compound 139] | ++ | +++ |
| COc1ccc(CNC(=O)c2c(Cl)cccc2Br)cc1 [Compound 108] | ++ | + |
| COc1ccc(CN(C)C(=O)c2c(Cl)ccnc2OCC2CC2)cc1F [Compound 247] | − | − |
| COc1ccc(CNC(=O)c2c(C(F)(F)F)ccnc2OCC2CCCC2)cc1F [Compound 230] | + | + |
| COc1ccc(CNC(=O)c2c(Cl)ccnc2OCC2CC2)cn1 [Compound 255] | + | + |
| COc1ccc(CNC(=O)c2ccccc2Cl)cc1F [Compound 121] | + | + |
| COc1ccc(CNC(=O)c2c(Cl)cccc2NCCO)cc1F [Compound 109] | + | ++ |
| COc1ccc(CNC(=O)c2c(Cl)cccc2OCC2CC2C)cc1F (centres unmarked) [Compound 152] | +++ | +++ |
| COc1ccc(CNC(=O)c2cc(Br)ccc2C)cc1 [Compound 115] | + | + |
| COc1ccc(CNC(=O)c2c(Cl)cccc2OC(C)C2CC2)cc1F (centres unmarked) [Compound 150] | +++ | ++ |
| CS(=O)(=O)c1ccc(CNC(=O)c2c(Cl)cccc2Cl)cc1 [Compound 112] | + | + |
| CCC(CC)Oc1nccc(C(F)(F)F)c1C(=O)NCc1ccc(OC)c(F)c1 [Compound 228] | + | + |
| COc1ccc(CNC(=O)c2c(Cl)cccc2OC2CCCC2)cc1F [Compound 146] | ++ | +++ |
| COc1ccc(CNC(=O)c2c(Cl)cccc2OCC(C)N(C)C)cc1F (centres unmarked) [Compound 166] | ++ | ++ |
| COC(=O)c1cccc(Oc2cccc(Cl)c2C(=O)NCc2ccc(OC)c(F)c2)c1 [Compound 158] | ++ | + |
| CCCS(=O)(=O)c1nccc(Cl)c1C(=O)NCc1ccc(OC)c(F)c1 [Compound 221] | + | + |
| COc1ccc(CNC(=O)c2c(Cl)cccc2Oc2ccccc2)cc1F [Compound 110] | + | ++ |

Next, values leading:

| ALDH2 (wild-type) [1] | ALDH2 (mutant) [2] | SMILES |
| --- | --- | --- |
| +++ | +++ | COc1ccc(CNC(=O)c2c(Cl)cccc2OC(C)C)cc1F [Compound 140] |
| ++ | ++ | COc1ccc(CNC(=O)c2c(Cl)ccnc2OC2CCCC2)cc1F [Compound 199] |
| − | − | CC(C)Oc1ccc(CNC(=O)c2c(Cl)ccnc2OCC2CC2)cc1F [Compound 188] |
| + | + | CCS(=O)(=O)c1nccc(Cl)c1C(=O)NCc1ccc(OC)c(F)c1 [Compound 220] |
| + | + | COc1ccc(C(C)NC(=O)c2c(Cl)ccnc2OCC2CC2)cc1F (centres unmarked) [Compound 249] |
| + | + | COc1ccc(CNC(=O)c2c(Cl)ccnc2S(C)(=O)=O)cc1F [Compound 219] |
| ++++ | ++++ | COc1ccc(CNC(=O)c2c(Cl)ccnc2OC2CCC2)cc1F [Compound 197] |
| + | + | COc1ccc(CNC(=O)c2c(C)ccnc2OCC(C)C)cc1F [Compound 232] |
| + | + | COc1ccc(CNC(=O)c2c(Cl)ccnc2OCC2CC2)cc1C [Compound 256] |
| ++ | ++ | CCSc1nccc(Cl)c1C(=O)NCc1ccc(OC)c(F)c1 [Compound 214] |
| ++ | ++ | COc1ccc(CNC(=O)c2c(Cl)ccnc2SC)cc1F [Compound 213] |
| ++ | ++ | COc1ccc(CNC(=O)c2c(Cl)ccnc2OC2CC2)cc1F [Compound 196] |
| + | + | COc1ccc(CNC(=O)c2c(Cl)ccnc2OCC2CCCN2)cc1F (centres unmarked) [Compound 204] |
| ++ | ++ | COc1cc(F)c(CNC(=O)c2c(Cl)ccnc2Cl)cc1F [Compound 176] |
| − | − | COc1cc(CNC(=O)c2c(Cl)ccnc2Cl)ccc1F [Compound 171] |
| +++ | +++ | COc1ccc(CNC(=O)c2c(Cl)ccnc2OCC2CCC2)cc1F [Compound 198] |
| − | − | CC(C)Oc1ccc(CNC(=O)c2c(Cl)ccnc2Cl)cc1F [Compound 177] |
| + | ++ | COc1ccc(CNC(=O)c2c(Cl)ccnc2NCC(C)C)cc1F [Compound 182] |
| + | + | COc1c(F)cc(CNC(=O)c2c(Cl)ccnc2OCC(C)C)cc1F [Compound 252] |
